Legend:
[1] = system: pyruvate dehydrogenase enzyme (PDH); assay: Increase in proportion of active form of pyruvate dehydrogenase (PDHa/PDHt) in hearts of fat-fed rats in vivo; conditions: fat-fed rat heart
Description: (2) increase the proportion of the active form of the enzyme pyruvate dehydrogenase (PDH) in organs of animals (e.g., rat heart) in vivo; and The ability of the compounds of this invention to increase the proportion of the active form of the pyruvate dehydrogenase enzyme has been measured in the following test: Rats fed on a high fat diet as in the previous test, are treated either with placebo or with the compound of formula (I) or (II) by sub-cutaneous or intravenous injection or by oral administration. After 11/2 hours the rat hearts are removed and homogenized under conditions which minimize changes in the proportion of the pyruvate dehydrogenase enzyme (PDH) which is present in the active form, as described by Whitehouse and Randle, Biochem, J., 134, 651 (1973). The total amount of the enzyme present (PDHt) and the amount which is present in the active form (PDHa) are assessed by a method similar to that described by Taylor et al., J. Biol. Chem., 248, 73 (1973). The fat-feeding process is found to depress the ratio […] from a normal value of about 0.7 to a value in the range from 0.1 to 0.3. Treatment of fat-fed rats with the compounds of formula (I) or (II) parenterally increases this ratio in a dose-dependent manner. The increase in […] ration affected by certain of the compounds when administered by subcutaneous infection at the dosage indicated is shown in the following table: […]

[2] = system: diaphragm tissue from fat-fed rats (pyruvate oxidation); assay: Pyruvate oxidation by diaphragm tissue from fat-fed rats in vitro (carbon-14 from labelled pyruvate into carbon dioxide); type: cell-based; conditions: fat-fed rat diaphragm, read-out: % Stimulation (pyruvate oxidation); for activation at 500 µM: concentration 0.5 m. mol.; for activation at 2000 µM: concentration 2 m. mol.; for activation at 1000 µM: concentration 1 m. mol.
Description: (1) increase the oxidation of glucose and/or pyruvate by isolated rat muscle preparations in vitro; The compounds of formulae (I) and (II) have been tested for their ability to increase the oxidation of glucose and/or pyruvate as follows: Diaphragm tissue is obtained from rats fed on a high fat diet similar to `Diet B` described by Zaragoza and Felber, Horm. Metab. Res., 2, 323 (1970). Pyruvate oxidation by such tissue is assessed by measurement of the rate of incorporation of carbon-14 from carbon-14-labelled pyruvate into carbon dioxide in vitro, as described by Bringold, Eur. J. Biochem., 26, 360 (1972). The rate of pyruvate oxidation is depressed by 50-75% compared with that by diaphragm tissue from rats fed on a normal diet. When the compounds of the invention are added to the medium, they are found to stimulate pyruvate oxidation by diaphragm tissue from fat-fed rats in a dose dependent manner.

[3] = 0.6 mmol/kg subcutaneous, placebo 0.12

SMILES: NC(=O)C(N)c1ccc2c(c1)CCO2 (racemic) [Example 6, DL-α-Amino-2,3-dihydro-5-benzo(b)furanylacetamide]
- PDHa/PDHt ratio [1, 3]: 0.46
- activation at 500 µM [2]: 29%

SMILES: O=C(O)C(=O)c1ccc2occc2c1 [Example 8, 5-Benzo(b)furanylglyoxlic Acid]
- activation at 500 µM [2]: 95%

SMILES: COCCNC(=O)C(N)c1ccc2c(c1)CCO2.Cl (racemic) [Example 7, DL-N-(2-Methoxyethyl)-α-amino-2,3-dihydro-5-benzo(b)furanylacetamide Hydrochloride]
- PDHa/PDHt ratio [1, 3]: 0.47
- activation at 500 µM [2]: 23%

SMILES: NC(C(=O)O)c1ccc2c(c1)CCS2 (racemic) [Example 13, DL-2-[2,3-Dihydro-5-benzo(b)thienyl]glycine]
- activation at 500 µM [2]: 21%

SMILES: NC(=O)C(N)c1ccc2c(c1)CCS2 (racemic) [Example 15, DL-2-[2,3-Dihydro-5-benzo(b)thienyl]glycinamide]
- activation at 2000 µM [2]: 11%

SMILES: O=C(O)C(=O)c1ccc2c(c1)CCS2 [Example 2, 2,3-Dihydro-5-benzo(b)thienylglyoxylic Acid]
- PDHa/PDHt ratio ([1]; 1.2 mmol/kg subcutaneous, placebo 0.27): 0.48
- activation at 1000 µM [2]: 105%

SMILES: Cc1cc2cc(C(=O)C(=O)O)ccc2o1 [Example 12, 2-Methyl-5-benzo(b)furanylglyoxylic Acid]
- PDHa/PDHt ratio ([1]; 0.3 mmol/kg subcutaneous, placebo 0.12): 0.36
- activation at 500 µM [2]: 58%

SMILES: O=C(O)C(=O)c1ccc2c(c1)CCCO2 [Example 4, 6-Chromanylglyoxylic Acid]
- activation at 500 µM [2]: 69%

SMILES: NC(C(=O)O)c1ccc2occc2c1 (racemic) [Example 9, DL-2-[5-Benzo(b)furanyl]glycine]
- activation at 500 µM [2]: 42%

SMILES: NC(=O)C(N)c1ccc2occc2c1 (racemic) [Example 10, DL-2-[5-Benzo(b)furanyl]glycinamide]
- activation at 500 µM [2]: 46%

SMILES: O=C(O)C(=O)c1ccc2oc(-c3ccccc3)cc2c1 [Example 11, 2-Phenyl-5-benzo(b)furanyl Glyoxylic Acid]
- PDHa/PDHt ratio ([1]; 0.3 mmol/kg subcutaneous, placebo 0.20): 0.26
- activation at 2000 µM [2]: 99%

SMILES: O=C(O)C(=O)c1ccc2c(c1)CCO2 [Example 3, 2,3-Dihydro-5-benzo(b)furanylglyoxylic Acid]
- PDHa/PDHt ratio ([1]; 0.3 mmol/kg subcutaneous, placebo 0.11): 0.21
- activation at 1000 µM [2]: 128%

Reference: patent US4341792A, “Heterobicyclic keto- and amino-acids, esters and amides” (Pfizer Inc., priority 1979, dated 1982)
